pEC50: −log10 of the molar value.
Molecular target: T1, human APJ receptor (Homo sapiens, UniProt P35414)
T1 construct: expressed in transfected cells; host or cells: HEK293
T1 sequence (P35414 1-380): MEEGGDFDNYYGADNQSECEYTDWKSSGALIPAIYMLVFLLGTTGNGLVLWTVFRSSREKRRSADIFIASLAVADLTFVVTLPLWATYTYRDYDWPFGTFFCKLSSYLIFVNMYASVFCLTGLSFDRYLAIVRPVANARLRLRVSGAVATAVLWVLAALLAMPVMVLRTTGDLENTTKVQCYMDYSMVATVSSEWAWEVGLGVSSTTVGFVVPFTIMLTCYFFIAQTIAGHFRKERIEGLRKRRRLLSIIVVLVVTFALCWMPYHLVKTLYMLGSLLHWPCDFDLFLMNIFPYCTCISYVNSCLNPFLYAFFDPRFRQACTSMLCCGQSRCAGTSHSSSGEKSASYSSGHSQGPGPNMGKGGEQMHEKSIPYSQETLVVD
Experiment: Intracellular cAMP Accumulation Assay (APJ hcAMP, HTRF)
Type: cell-based
Details: human APJ, cAMP accumulation; potency range class; read-out: hAPJ cAMP EC50 Potency range
How it was run: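 Stably transfected HEK293 cells (5,000/well) incubated 30 min at room temperature with serially diluted compound, […] and 2 μM forskolin. cAMP measured by HTRF after 60 min with detection reagents, quantified against a cAMP standard curve; EC50 from variable-slope sigmoidal fit of inhibition of forskolin-stimulated cAMP.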

| Compound | pEC50 |
| --- | --- |
| CCc1cccc(CC)c1-n1c(-c2ccn(CC(C)C)n2)nc(=O)c(C(=O)N2CCC(c3ccc(F)cn3)C2)c1O (single isomer, unassigned) [Example 318, 1-(2,6-diethylphenyl)-5-[3-(5-fluoropyridin-2-yl)pyrrolidine-1-carbonyl]-6-hydroxy-2-[1-(2-methylpropyl)-1H-pyrazol-3-yl]-1,4-dihydropyrimidin-4-one] | 8.00 to 11.00 |
| CCc1cccc(CC)c1-n1c(-c2ccn(C3CC3)n2)nc(=O)c(C(=O)N2CCC(c3ncccc3F)C2)c1O (single isomer, unassigned) [Example 319, 2-(1-cyclopropyl-1H-pyrazol-3-yl)-1-(2,6-diethylphenyl)-5[3(3-fluoropyridin-2-yl)pyrrolidine-1-carbonyl]-6-hydroxy-1,4-dihydropyrimidin-4-one] | 8.00 to 11.00 |
| CCc1cccc(CC)c1-n1c(-c2ccn(CC(C)C)n2)nc(=O)c(C(=O)N2CCC(c3ncc(F)cc3F)C2)c1O (single isomer, unassigned) [Example 320, 1-(2,6-diethylphenyl)-5-[3-(3,5-difluoropyridin-2-yl)pyrrolidine-1-carbonyl]-6-hydroxy-2-[1-(2-methylpropyl)-1H-pyrazol-3-yl]-1,4-dihydropyrimidin-4-one] | 7.00 to 8.00 |
| CC[C@@H](c1ccccc1)n1c(-c2nc(C)cs2)nc(=O)c(C(=O)N2CCC(c3ncc(F)cc3F)C2)c1O (single isomer, unassigned) [Example 321] | 8.00 to 11.00 |
| CC[C@@H](c1ccccc1)n1c(-c2nc(C)cs2)nc(=O)c(C(=O)N2CCC(c3ccc(F)cn3)C2)c1O (single isomer, unassigned) [Example 322] | 8.00 to 11.00 |
| CC[C@@H](c1ccccc1)n1c(-c2nc(C)cs2)nc(=O)c(C(=O)N2CCC(c3ncc(Cl)cc3F)C2)c1O (single isomer, unassigned) [Example 323] | 8.00 to 11.00 |
| CC[C@@H](c1ccccc1)n1c(-c2nc(C)cs2)nc(=O)c(C(=O)N2CCC(c3ccccc3F)C2)c1O (single isomer, unassigned) [Example 324] | 8.00 to 11.00 |
| CCc1cccc(CC)c1-n1c(-c2ccn(C3CC3)n2)nc(=O)c(C(=O)N2CCC(c3ncc(F)cc3F)C2)c1O (single isomer, unassigned) [Example 325, 2-(1-cyclopropyl-1H-pyrazol-3-yl)-1-(2,6-diethylphenyl)-5-[3-(3,5-difluoropyridin-2-yl)pyrrolidine-1-carbonyl]-6-hydroxy-1,4-dihydropyrimidin-4-one] | 8.00 to 11.00 |
| CCn1ccc(-c2nc(=O)c(C(=O)N3CCC(c4ncc(Cl)cc4F)C3)c(O)n2[C@H](c2cc(F)cc(F)c2)C(C)C)n1 (single isomer, unassigned) [Example 326] | 8.00 to 11.00 |
| CCn1ccc(-c2nc(=O)c(C(=O)N3CCC(c4ncc(F)cc4F)C3)c(O)n2[C@H](c2cc(F)cc(F)c2)C(C)C)n1 (single isomer, unassigned) [Example 327] | 8.00 to 11.00 |
| CCc1cccc(CC)c1-n1c(-c2ccn(C3CC3)n2)nc(=O)c(C(=O)N2CCC(c3ccc(F)cn3)C2)c1O (single isomer, unassigned) [Example 328, 2-(1-cyclopropyl-1H-pyrazol-3-yl)-1-(2,6-diethylphenyl)-5-[3-(5-fluoropyridin-2-yl)pyrrolidine-1-carbonyl]-6-hydroxy-1,4-dihydropyrimidin-4-one] | 8.00 to 11.00 |
| CCCCc1nc(O)c(C(=O)N2CCC(c3ncc(F)cc3F)C2)c(=O)n1[C@@H](CC)c1ccccc1 (single isomer, unassigned) [Example 345] | 8.00 to 11.00 |
| CCCCc1nc(O)c(C(=O)N2CCC(c3ncc(Cl)cc3F)C2)c(=O)n1[C@@H](COC)c1ccccc1 (single isomer, unassigned) [Example 352] | 8.00 to 11.00 |
| CCOCc1nc(=O)c(C(=O)N2CCC(c3c(F)cccc3F)C2)c(O)n1-c1c(OC)cccc1OC (single isomer, unassigned) [Example 353, 5-[3-(2,6-difluorophenyl)pyrrolidine-1-carbonyl]-1-(2,6-dimethoxyphenyl)-2-(ethoxymethyl)-6-hydroxy-1,4-dihydropyrimidin-4-one] | 8.00 to 11.00 |
| CCOCc1nc(=O)c(C(=O)N2CCC(c3c(F)cccc3F)C2)c(O)n1-c1c(OC)cccc1OC (single isomer, unassigned) [Example 354, 5-[3-(2,6-difluorophenyl)pyrrolidine-1-carbonyl]-1-(2,6-dimethoxyphenyl)-2-(ethoxymethyl)-6-hydroxy-1,4-dihydropyrimidin-4-one] | 8.00 to 11.00 |
| CCCCc1nc(=O)c(C(=O)N2CCC(c3ncc(Cl)cc3F)C2)c(O)n1-c1c(OC)cccc1OC (single isomer, unassigned) [Example 356, 2-butyl-5-(3-(5-chloro-3-fluoropyridin-2-yl)pyrrolidine-1-carbonyl)-1-(2,6-dimethoxyphenyl)-6-hydroxypyrimidin-4(1H)-one] | 8.00 to 11.00 |
| CCCCc1nc(=O)c(C(=O)N2CCC(c3ncc(Cl)cc3F)C2)c(O)n1-c1c(OC)cccc1OC (single isomer, unassigned) [Example 357, 2-butyl-5-(3-(5-chloro-3-fluoropyridin-2-yl)pyrrolidine-1-carbonyl)-1-(2,6-dimethoxyphenyl)-6-hydroxypyrimidin-4(1H)-one] | 8.00 to 11.00 |
| CCCCc1nc(=O)c(C(=O)N2CCC(c3ncc(F)cc3F)C2)c(O)n1-c1c(OC)cccc1OC (single isomer, unassigned) [Example 358, 2-butyl-5-(3-(3,5-difluoropyridin-2-yl)pyrrolidine-1-carbonyl)-1-(2,6-dimethoxyphenyl)-6-hydroxypyrimidin-4(1H)-one] | 8.00 to 11.00 |
| CCCCc1nc(=O)c(C(=O)N2CCC(c3ncc(F)cc3F)C2)c(O)n1-c1c(OC)cccc1OC (single isomer, unassigned) [Example 359, 2-butyl-5-(3-(3,5-difluoropyridin-2-yl)pyrrolidine-1-carbonyl)-1-(2,6-dimethoxyphenyl)-6-hydroxypyrimidin-4(1H)-one] | 8.00 to 11.00 |
| CCOCc1nc(=O)c(C(=O)N2CCC(c3ccccc3C#N)C2)c(O)n1-c1c(OC)cccc1OC (single isomer, unassigned) [Example 362, 2-(1-(1-(2,6-dimethoxyphenyl)-2-(ethoxymethyl)-6-hydroxy-4-oxo-1,4-dihydropyrimidine-5-carbonyl)pyrrolidin-3-yl)benzonitrile] | 8.00 to 11.00 |
| CCOCc1nc(=O)c(C(=O)N2CCC(c3ccccc3C#N)C2)c(O)n1-c1c(OC)cccc1OC (single isomer, unassigned) [Example 363, 2-(1-(1-(2,6-dimethoxyphenyl)-2-(ethoxymethyl)-6-hydroxy-4-oxo-1,4-dihydropyrimidine-5-carbonyl)pyrrolidin-3-yl)benzonitrile] | 8.00 to 11.00 |
| CCCCc1nc(=O)c(C(=O)N2CCC(c3ccccc3C#N)C2)c(O)n1-c1c(OC)cccc1OC (single isomer, unassigned) [Example 364, 2-(1-(2-butyl-1-(2,6-dimethoxyphenyl)-6-hydroxy-4-oxo-1,4-dihydropyrimidine-5-carbonyl)pyrrolidin-3-yl)benzonitrile] | 8.00 to 11.00 |
| CCCCc1nc(=O)c(C(=O)N2CCC(c3ccccc3C#N)C2)c(O)n1-c1c(OC)cccc1OC (single isomer, unassigned) [Example 365, 2-(1-(2-butyl-1-(2,6-dimethoxyphenyl)-6-hydroxy-4-oxo-1,4-dihydropyrimidine-5-carbonyl)pyrrolidin-3-yl)benzonitrile] | 8.00 to 11.00 |

— patent publication US10590113B2, “6-hydroxy-4-oxo-1,4-dihydropyrimidine-5-carboxamides as APJ agonists” (priority 2016, dated 2020)
